{"source": "patent US20260315564A1", "about": "“THE USE OF TP3 (THYMOPENTIN ANALOG) BY INCREASING THE ACTIVITY AND NUMBER OF T-CELLS INVOLVED IN THE DEFENSE MECHANISM OF THE IMMUNE SYSTEM OF MAMMALS, FOR THE PREVENTION OR TREATMENT OF DISEASES TO EXTEND THE AVERAGE LIFESPAN” (priority 2023, published 2026)", "key": {"[1]": {"test_system": "Thy1+ cells in the spleens", "assay": "Number of Thy1+ cells in spleens of Balb/c nu/nu mice after TP-fragment treatment", "format": "in vivo", "conditions": "ip, n = 8/group, control 5.4", "description": "• D.1/Direct cytotoxicity test/for the detection of Thy, Lyt antigens (Fathman 1979, in Immunol Meth I. Eds. Lefkovits, Pernis, Acad Press, New York, pp. 212-213.) was used. Subpopulation ratios were determined from bone marrow cells, thymus, and spleen cells isolated from the lymphatic organs of mice. The cell suspensions (1.087-1.088 g/cm3) were centrifuged ona density gradient (2000 rpm, 20 minutes), and the cells were washed 3× with RPMI1640 medium containing 0.3% BSA, then adjusted to 107/ml. Thyl, Lyt 1, Lyt2 monoclonal antibodies (McAb/Ando I. (ICRF Human Tumor Immunol. UCM Med Sch. London) were obtained. 25 μl McAb and 25 ul cell suspension were incubated (60′, 40C1), after centrifugation (1250 rpm 10′), the cells were resuspended with 40 μul of diluted (1:50) rabbit complement, then incubated (370C, 60′). The cell suspensions were stained with 1:5 dilution of Eosin Y (Jansen). the ratio of live to non-living cells was determined.\n(§1) Mice were treated for 4 weeks 3 times a week (every other day) with TP fragments (10-9, 10-8, 10-7//10-3, 10-2, 10-1 M/animal ip. (Veys et al., 1983) at the end of the treatments ([…]), the mice were immunized (with 0.5 ml 1% BVVT suspension ip. The immune response was expressed in antibody titers as above).\nEffects of inducing renewal of the immune system and increasing activity in Balb/c nude mice The nude mouse is genetically deficient in the thymus. The […] atrophies over time after hormonal follow-up in mice and humans. As a result, the strength of the lymphoid, and within that of the T cells, decreases. All this means a definitive decrease in antigen recognition capacity. The increasing number and activity of immune cells in the thymus of nude mice is increasing health and quality of life span.\nThe number of Thy1+ cells in the spleens of Balb/c nu/nu mice after TP-fragment treatment (Thy 1+ marker-bearing cells in mice correspond to human lymphocytes)"}, "[2]": {"test_system": "Antibody production (immunized with BVVT)", "assay": "Antibody production (anti-BVVT titer) in Balb/c nu/nu mice", "format": "in vivo", "conditions": "ip, n = 10/group, control < 3.0", "description": "(§2) Rats (Hannover Wistar) were treated (i.p.) within 6-12 hours after birth. Treatments after birth in a single session or in another examination • on the 7th day after the first treatment; • another group was vaccinated 3 times a week after the first day of treatment. • in a subsequent group, the treatments took place over three weeks (9× in total) (10-3,10-5,10-7//10-9, 10-11,10-12,10-13 M/animal, i.p.). • in the fourth test series, the animals were treated with TP fragments at 0, 1, 2, 4, or 5 days of age. The rats were randomly immunized on the 14th day after birth (1% BVVT with 0.5 ml cell suspension, i.p.). Immune responses were measured after 7 days on day 21 of the experiment. 1.2. Determination of anti-BVVT Ab titers (from rat blood samples ex vivo) • with the haemagglutination method (Takátsy and Fürész, 1955) on 96-well plates (Flow). 50 ul of 0.9% NaCl solution was added to each well. The sera (50 μl) were diluted by half dilution in 12 steps, mixed with 25 pμl 2% BVVT cell suspension, and incubated (1 hour at 37 °C). The hemagglutination titers of the sera are determined. Values expressed in logarithmic values refer to total agglutination.\nas §1"}, "Anti-SRBC-Ab (IgM)": {"test_system": "Anti-SRBC-Ab (IgM)", "assay": "Anti-SRBC-Ab titer (IgM) in newborn rats after 9x treatment (hemagglutination)", "format": "in vivo, Hannover Wistar rats (newborn)", "conditions": "9x (3x3 weeks/ip), n = 12, control 6.3 (TP5), 5.2 (TP3)", "description": "(§3) Rats (Hannover Wistar) were treated (i.p.) within 6-12 hours after birth. Treatments after birth in a single session or in another examination • on the 7th day after the first treatment; • another group was vaccinated 3 times a week after the first day of […]. treatment • in a subsequent group treated over three weeks (9× in total) (10-3,10-5,10-7//10-9, 10-11,10-12, 10-13 M/animal, i.p). • in the fourth test series, the animals were treated with TP fragments at 0, 1, 2, 4, or 5 days of age. The rats were unanimously immunized on the 14th day after birth (1% BVVT with 0.5 ml cell suspension, i.p.). Immune responses were measured after 7 days on day 21 of the experiment.\nas §2"}, "[3]": {"test_system": "PFC (plaque-forming cells)", "assay": "PFC (plaque-forming cells) in H. Wistar rats", "format": "in vivo, Hannover Wistar rats (newborn)", "conditions": "for PFC (plaque-forming cells): 1x/ip, control 53.9 ± 8.8; for PFC (plaque-forming cells) / number of PFC: n = 12; for number of PFC: 9x (3x3 weeks/ip), control 139 ± 12.7", "description": "as §3, §2\n1.3./Determination of the number of plaque-forming cells (PFC) (using rat spleen cells) The chopped splenocytes were placed in a culture medium (Parker 199) and then shaken with a shaker for 1 minute. The cells were suctioned from the surface of the rapidly settling tissue debris. Red blood cells were removed osmotically. Cell suspensions were adjusted to 107/ml. The cell suspensions were mixed with a 15% BVVT cell suspension in a ratio of 2:1. PFC was determined with the mixture using a modified chamber technique according to Channingham et al., 1966). Before filling the chamber, 50 μl of fresh diluted guinea pig serum (1:20) was added. The chambers (2-2/slide) were incubated (370C 45′) after sealing with paraffin, the formed plaques were counted under a microscope (at 400× magnification) within 2 hours Marker tests related to the rejection reaction of an adult thymus-depleted mouse skin graft 1.4./Rejection of skin transplants in nude mice after treatment with TP fragments (Snell et al., Transplantation 5, 492, 1967)."}, "[4]": {"assay": "High-dose / long-term tolerability in animals", "format": "in vivo", "conditions": "12 months of use, in words"}}, "note": "Marks after values point to notes of the source that are not given here. Residues, ends and D or L forms follow the SMILES beside them."}
{"smiles": "CC(C)[C@H](NC(=O)[C@H](CC(=O)O)NC(=O)[C@H](CCCCN)NC(=O)[C@@H](N)CCCN=C(N)N)C(=O)N[C@@H](Cc1ccc(O)cc1)C(=O)O", "note": "[TP5] (H-RKDVY-OH)", "values": [{"measurement": "number of Thy1+ cells in spleen", "setting": "[1]; 10^-1 M/mice", "result": "131*"}, {"measurement": "number of Thy1+ cells in spleen", "setting": "[1]; 10^-2 M/mice", "result": "129**"}, {"measurement": "number of Thy1+ cells in spleen", "setting": "[1]; 10^-3 M/mice", "result": "94*"}, {"measurement": "number of Thy1+ cells in spleen", "setting": "[1]; 10^-7 M/mice", "result": "125**"}, {"measurement": "number of Thy1+ cells in spleen", "setting": "[1]; 10^-8 M/mice", "result": "79*"}, {"measurement": "number of Thy1+ cells in spleen", "setting": "[1]; 10^-9 M/mice", "result": 9.5}, {"measurement": "antibody production (titer)", "setting": "[2]; 10^-2 M/mouse (M/eger)", "result": "26.4 **"}, {"measurement": "antibody production (titer)", "setting": "[2]; 10^-3 M/mouse (M/eger)", "result": 19.8}, {"measurement": "antibody production (titer)", "setting": "[2]; 10^-4 M/mouse (M/eger)", "result": 11.9}, {"measurement": "antibody production (titer)", "setting": "[2]; 10^-7 M/mouse (M/eger)", "result": "24.6 **"}, {"measurement": "antibody production (titer)", "setting": "[2]; 10^-8 M/mouse (M/eger)", "result": "19.9 *"}, {"measurement": "antibody production (titer)", "setting": "[2]; 10^-9 M/mouse (M/eger)", "result": 14.5}, {"measurement": "Anti-SRBC-Ab titer (IgM)", "setting": "Anti-SRBC-Ab (IgM); 10^-3 M/animal", "result": "7.3 2 log"}, {"measurement": "Anti-SRBC-Ab titer (IgM)", "setting": "Anti-SRBC-Ab (IgM); 10^-4 M/animal", "result": "8.2* 2 log"}, {"measurement": "Anti-SRBC-Ab titer (IgM)", "setting": "Anti-SRBC-Ab (IgM); 10^-5 M/animal", "result": "8.6* 2 log"}, {"measurement": "Anti-SRBC-Ab titer (IgM)", "setting": "Anti-SRBC-Ab (IgM); 10^-6 M/animal", "result": "7.5 2 log"}, {"measurement": "Anti-SRBC-Ab titer (IgM)", "setting": "Anti-SRBC-Ab (IgM); 10^-9 M/animal", "result": "7.2 2 log"}, {"measurement": "Anti-SRBC-Ab titer (IgM)", "setting": "Anti-SRBC-Ab (IgM); 10^-11 M/animal", "result": "10.7* 2 log"}, {"measurement": "Anti-SRBC-Ab titer (IgM)", "setting": "Anti-SRBC-Ab (IgM); 10^-13 M/animal", "result": "7.9* 2 log"}, {"measurement": "PFC (plaque-forming cells)", "setting": "[3]; 10^-6 M/animal", "result": 71}, {"measurement": "number of PFC", "setting": "[3]; 10^-6 M/animal", "result": 159}, {"measurement": "PFC (plaque-forming cells)", "setting": "[3]; 10^-7 M/animal", "result": "129*"}, {"measurement": "number of PFC", "setting": "[3]; 10^-7 M/animal", "result": "203*"}, {"measurement": "PFC (plaque-forming cells)", "setting": "[3]; 10^-8 M/animal", "result": "148*"}, {"measurement": "number of PFC", "setting": "[3]; 10^-8 M/animal", "result": "223*"}, {"measurement": "PFC (plaque-forming cells)", "setting": "[3]; 10^-9 M/animal", "result": "90*"}, {"measurement": "number of PFC", "setting": "[3]; 10^-9 M/animal", "result": 126}, {"measurement": "PFC (plaque-forming cells)", "setting": "[3]; 10^-10 M/animal", "result": 76}, {"measurement": "number of PFC", "setting": "[3]; 10^-10 M/animal", "result": "185*"}, {"measurement": "PFC (plaque-forming cells)", "setting": "[3]; 10^-11 M/animal", "result": 75}, {"measurement": "number of PFC", "setting": "[3]; 10^-11 M/animal", "result": 162}, {"measurement": "PFC (plaque-forming cells)", "setting": "[3]; 10^-13 M/animal", "result": 67}, {"measurement": "number of PFC", "setting": "[3]; 10^-13 M/animal", "result": 143}, {"measurement": "potency TP3 versus TP5 (PFC)", "setting": "[3]; comparison, in words", "result": "TP3=TP5 potency"}, {"measurement": "side effects", "setting": "[4]", "result": "did not cause any signs of side effects"}]}
